Test results taken from patent US20260256925A1, “INDAZOLE DERIVATIVES AS ESTROGEN RECEPTOR DEGRADERS” (REGENTS OF THE UNIVERSITY OF MICHIGAN, priority 2022, published 2026).
pIC50: −log10 of the molar value.

What was measured:
[1] = Cell growth assay, WST-8 (compounds B1-B126); assay type: cell-based; conditions: 96 h; T47D cell line, WST-8, 4 days; read-out: Cell growth inhibition in T47D cell line IC50
Experimental: Cell Growth Assay. The cells are seeded at certain concentration (e.g., at 1500/well) in multi-well plates overnight. Cells are subsequently treated with the compounds. A certain period of time (e.g., 4 days) after the compound treatment, 10% WST-8 reagent is added to the culture medium and incubate under certain condiction (e.g., in a CO2 incubator at 37° C. for 2.5 hours). The absorbance is measured on each sample using a microplate reader at certain wavelength (e.g., 450 nm). The relative absorbance is calculated against the vehicle control from three individually repeats.
Cell Growth Assay. The cells were seeded at 1500/well in 96 well plates overnight. One day after the seeding, they were treated with indicated doses of compounds respectively. 4 days after the compound treatment, 10% WST-8 reagent was added to the culture medium and incubate in a CO2 incubator at 37° C. for 2.5 hours. Before reading, the plate was mixed gently on an orbital shaker for one minute to ensure homogeneous distribution of color. The absorbance was measured of each sample using a microplate reader at a wavelength of 450 nm. The relative absorbance was calculated against the vehicle control from three individually repeats.

ER = target: T1, ER (Homo sapiens, UniProt P03372); assay: In-cell western blot analysis, relative ER percentage (compounds B1-B126); assay type: cell-based; conditions: ER degradation, 16 hours, read-out: ICW DC50
T1 construct: endogenous in cells; probably T47D or MCF-7
T1 sequence (P03372 1-595): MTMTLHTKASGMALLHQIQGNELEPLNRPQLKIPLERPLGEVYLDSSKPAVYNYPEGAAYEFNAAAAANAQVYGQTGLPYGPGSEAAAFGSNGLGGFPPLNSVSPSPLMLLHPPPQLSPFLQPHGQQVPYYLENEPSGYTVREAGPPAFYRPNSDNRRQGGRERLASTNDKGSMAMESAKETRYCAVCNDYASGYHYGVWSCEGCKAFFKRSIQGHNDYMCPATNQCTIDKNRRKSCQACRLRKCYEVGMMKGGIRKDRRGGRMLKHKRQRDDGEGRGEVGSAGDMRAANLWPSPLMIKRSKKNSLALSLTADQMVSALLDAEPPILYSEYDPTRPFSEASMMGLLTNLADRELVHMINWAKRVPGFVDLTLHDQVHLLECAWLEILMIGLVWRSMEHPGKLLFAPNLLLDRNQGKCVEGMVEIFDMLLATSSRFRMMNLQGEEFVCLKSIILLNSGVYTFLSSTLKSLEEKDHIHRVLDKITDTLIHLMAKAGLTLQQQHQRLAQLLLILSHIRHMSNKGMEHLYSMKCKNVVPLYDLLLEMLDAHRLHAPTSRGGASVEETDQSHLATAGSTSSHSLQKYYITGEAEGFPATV
Experimental: In-cell western blot analysis. Cells are seeded in multi-well plates (e.g., at 40,000 or 10,000 cells/well). Diluted compounds at certain concentration are added (final 0.5% DMSO) and cells are incubated for a certain period of time (e.g., 16 hours). Formaldehyde (e.g., PBS: FA=9:1) is added and followed by washing with PBS. The cells are blocked with Licor blocking buffer (Li-Cor). The relative ER percentage in treated cells are obtained by comparing the values of treated wells to those in untreated and DMSO-treated wells as 100%.
In-cell western blot analysis. a. seed cells in black-sided/clear bottom 96- or 384-well plates at 40,000 or 10,000 cells/well, overnight; b. add diluted compounds (final 0.5% DMSO), 16 hours. […] RT 2h, gentle shaking. Negative control: cells plus secondary antibodies (no primary antibodies); e. wash×4 with PBS +0.05-0.1% Tween 20, gentel shaking; f. anti-rabbit-680 and anti-mouse-800 (both 1:1000 in LiCor block+0.05% Tween20, RT 1h, gentle shaking, no light. LI-COR: 0.2% to reduce background; g. wash×4 with PBS+0.05% Tween 20, gental shaking; h. add 100 μL or 25 μL of PBS to each well and read on CLX plate reader. The relative ER percentage in treated cells were obtained by comparing the values of treated wells to those in untreated and DMSO-treated wells as 100%.

Structure (SMILES)	pIC50 [1]	DC50 (ER)
C[C@@H]1Cc2c(ccc3[nH]ncc23)[C@@H](c2c(F)cc(N3CC4(CCN(C(=O)CN5CCN6c7cc8c(cc7OC[C@@H]6C5)C(=O)N(C5CCC(=O)NC5=O)C8)CC4)C3)cc2F)N1CC(F)F (stereo partly drawn) [Compound B22, 3-((S)-3-(2-(2-(4-((6S,8R)-7-(2,2-difluoroethyl)-8-methyl-6,7,8,9-tetrahydro-3H-pyrazolo[4,3-f]isoquinolin-6-yl)-3,5-difluorophenyl)-2,7-diazaspiro[3.5]nonan-7-yl)-2-oxoethyl)-8-oxo-1,2,3,4,4a,5,8,10-octahydro-9H-pyrazino[1′,2′:4,5][1,4]oxazino[2,3-f]isoindol-9-yl)piperidine-2,6-dione]	> 9.00	< 10 nM
C[C@@H]1Cc2c(ccc3[nH]ncc23)[C@@H](c2ccc(N3CCC4(CC3)CC(CN3CCN5c6ccc(C(=O)N[C@H]7CCC(=O)NC7=O)nc6OC[C@H]5C3)C4)cn2)N1CC(F)(F)F [Compound B89, (R)-N-((S)-2,6-dioxopiperidin-3-yl)-3-((7-(6-((6S,8R)-8-methyl-7-(2,2,2-trifluoroethyl)-6,7,8,9-tetrahydro-3H-pyrazolo[4,3-f]isoquinolin-6-yl)pyridin-3-yl)-7-azaspiro[3.5]nonan-2-yl)methyl)-1,2,3,4,4a,5-hexahydropyrazino[1,2-d]pyrido[2,3-b][1,4]oxazine-8-carboxamide]	< 8.00	> 100 nM
COc1cc(N2CCC3(CCN(CC(=O)N4Cc5cc6c(cc5C4)C(=O)N(C4CCC(=O)NC4=O)C6=O)CC3)CC2)ccc1[C@@H]1c2ccc3[nH]ncc3c2C[C@@H](C)N1CC(F)F (stereo partly drawn) [Compound B51, 6-(2-(9-(4-((6S,8R)-7-(2,2-difluoroethyl)-8-methyl-6,7,8,9-tetrahydro-3H-pyrazolo[4,3-f]isoquinolin-6-yl)-3-methoxyphenyl)-3,9-diazaspiro[5.5]undecan-3-yl)acetyl)-2-(2,6-dioxopiperidin-3-yl)-6,7-dihydropyrrolo[3,4-f]isoindole-1,3(2H,5H)-dione]	< 8.00	10 to 100 nM
C[C@@H]1Cc2c(ccc3[nH]ncc23)[C@@H](c2cnc(N3CCC4(CCC(CN5CCN6c7ccc8c(c7OC[C@H]6C5)CN([C@H]5CCC(=O)NC5=O)C8=O)CO4)CC3)nc2)N1CC(F)(F)F (stereo partly drawn) [Compound B125, (3S)-3-((5aR)-7-((9-(5-((6S,8R)-8-methyl-7-(2,2,2-trifluoroethyl)-6,7,8,9-tetrahydro-3H-pyrazolo[4,3-f]isoquinolin-6-yl)pyrimidin-2-yl)-1-oxa-9-azaspiro[5.5]undecan-3-yl)methyl)-1-oxo-1,3,5,5a,6,7,8,9-octahydro-2H-pyrazino[1′,2′:4,5][1,4]oxazino[2,3-e]isoindol-2-yl)piperidine-2,6-dione]	> 9.00	< 10 nM
C[C@@H]1Cc2c(ccc3[nH]ncc23)[C@@H](c2ccc(N3CCC4(CCN(C(=O)CN5Cc6cc7c(cc6C5)C(=O)N(C5CCC(=O)NC5=O)C7=O)CC4)CC3)cn2)N1CC(F)F (stereo partly drawn) [Compound B49, 6-(2-(9-(6-((6S,8R)-7-(2,2-difluoroethyl)-8-methyl-6,7,8,9-tetrahydro-3H-pyrazolo[4,3-f]isoquinolin-6-yl)pyridin-3-yl)-3,9-diazaspiro[5.5]undecan-3-yl)-2-oxoethyl)-2-(2,6-dioxopiperidin-3-yl)-6,7-dihydropyrrolo[3,4-f]isoindole-1,3(2H,5H)-dione]	< 8.00	10 to 100 nM
C[C@@H]1Cc2c(ccc3[nH]ncc23)[C@@H](c2ccc(N3CC4(CCC(CN5CCC6(CC5)COc5c6ccc6c5CN(C5CCC(=O)NC5=O)C6=O)CC4)C3)cn2)N1CC(F)(F)F (stereo partly drawn) [Compound B57, 3-(1′-((2-(6-((6S,8R)-8-mcthyl-7-(2,2,2-trifluoroethyl)-6,7,8,9-tetrahydro-3H-pyrazolo[4,3-f]isoquinolin-6-yl)pyridin-3-yl)-2-azaspiro[3.5]nonan-7-yl)methyl)-6-oxo-6,8-dihydro-2H,7H-spiro[furo[2,3-e]isoindole-3,4′-piperidin]-7-yl)piperidine-2,6-dione]	> 9.00	< 10 nM
C[C@@H]1Cc2c(ccc3[nH]ncc23)[C@@H](c2ccc(N3CC4(CCC(CN5CCN6c7cc8c(cc7N(C)C[C@@H]6C5)C(=O)N(C5CCC(=O)NC5=O)C8)CC4)C3)cn2)N1CC(F)(F)F (stereo partly drawn) [Compound B59, 3-((S)-6-methyl-3-((2-(6-((6S,8R)-8-methyl-7-(2,2,2-trifluoroethyl)-6,7,8,9-tetrahydro-3H-pyrazolo[4,3-f]isoquinolin-6-yl)pyridin-3-yl)-2-azaspiro[3.5]nonan-7-yl)methyl)-8-oxo-2,3,4,4a,5,6,8,10-octahydropyrazino[1,2-a]pyrrolo[3,4-g]quinoxalin-9(1H)-yl)piperidine-2,6-dione]	8.00 to 9.00	< 10 nM
COc1cc(N2CCC3(CC2)CC(CN2CCN4c5ccc6c(c5OC[C@H]4C2)CN(C2CCC(=O)NC2=O)C6=O)C3)ccc1[C@@H]1c2ccc3[nH]ncc3c2C[C@@H](C)N1CC(F)F (stereo partly drawn) [Compound B82, 3-((R)-7-((7-(4-((6S,8R)-7-(2,2-difluoroethyl)-8-methyl-6,7,8,9-tetrahydro-3H-pyrazolo[4,3-f]isoquinolin-6-yl)-3-methoxyphenyl)-7-azaspiro[3.5]nonan-2-yl)methyl)-1-oxo-1,3,5,5a,6,7,8,9-octahydro-2H-pyrazino[1′,2′:4,5][1,4]oxazino[2,3-e]isoindol-2-yl)piperidine-2,6-dione]	> 9.00	10 to 100 nM
C[C@@H]1Cc2c(ccc3[nH]ncc23)[C@@H](c2c(F)cc(N3CCC4(CN(C(=O)CN5CCN6c7cc8c(cc7OC[C@@H]6C5)C(=O)N(C5CCC(=O)NC5=O)C8)C4)C3)cc2F)N1CC(F)F (stereo partly drawn) [Compound B37, 3-((S)-3-(2-(6-(4-((6S,8R)-7-(2,2-difluoroethyl)-8-methyl-6,7,8,9-tetrahydro-3H-pyrazolo[4,3-f]isoquinolin-6-yl)-3,5-difluorophenyl)-2,6-diazaspiro[3.4]octan-2-yl)-2-oxoethyl)-8-oxo-1,2,3,4,4a,5,8,10-octahydro-9H-pyrazino[1′,2′:4,5][1,4]oxazino[2,3-f]isoindol-9-yl)piperidine-2,6-dione]	> 9.00	< 10 nM
COc1cc(N2CCC3(CC2)CC(CN2CCN4c5cc6c(cc5OC[C@@H]4C2)C(=O)N(C2CCC(=O)NC2=O)C6)C3)ccc1[C@@H]1c2ccc3[nH]ncc3c2C[C@@H](C)N1CC(F)F (stereo partly drawn) [Compound B54, 3-((S)-3-((7-(4-((6S,8R)-7-(2,2-difluoroethyl)-8-methyl-6,7,8,9-tetrahydro-3H-pyrazolo[4,3-f]isoquinolin-6-yl)-3-methoxyphenyl)-7-azaspiro[3.5]nonan-2-yl)methyl)-8-oxo-1,2,3,4,4a,5,8,10-octahydro-9H-pyrazino[1′,2′:4,5][1,4]oxazino[2,3-f]isoindol-9-yl)piperidine-2,6-dione]	8.00 to 9.00	< 10 nM
C[C@@H]1Cc2c(ccc3[nH]ncc23)[C@@H](c2ccc(N3CCC4(CCN(C(=O)CN5Cc6cc7c(cc6C5)C(=O)N(C5CCC(=O)NC5=O)C7)CC4)CC3)cn2)N1CC(F)(F)F (stereo partly drawn) [Compound B74, 3-(6-(2-(9-(6-((6S,8R)-8-methyl-7-(2,2,2-trifluoroethyl)-6,7,8,9-tetrahydro-3H-pyrazolo[4,3-f]isoquinolin-6-yl)pyridin-3-yl)-3,9-diazaspiro[5.5]undecan-3-yl)-2-oxoethyl)-1-oxo-3,5,6,7-tetrahydropyrrolo[3,4-f]isoindol-2(1H)-yl)piperidine-2,6-dione]	8.00 to 9.00	
